The target of experiment [1] is 5-hydroxytryptamine receptor 4 (Homo sapiens, UniProt Q13639). In words: Binding affinity against 5-hydroxytryptamine 4 receptor.
Experiment [2] addresses 5-hydroxytryptamine receptor 1D (Cavia porcellus, UniProt Q60484). In words: In vitro binding affinity towards 5-hydroxytryptamine 1D receptor in guinea-pig striatum in presence of BMY-7378 and mesulergine. In kind it is tissue-based.
Experiment [3] concerns the target 5-hydroxytryptamine receptor 1D (Cavia porcellus) (UniProt Q60484). Put plainly: Oral effective dose against hypothermia in the guinea pig caused by stimulation of central 5-hydroxytryptamine 1D receptors by the agonist GR-46611;range is 0.2-0.4. The class given is functional.
The target in experiment [4] is 5-hydroxytryptamine receptor 1B (Rattus norvegicus, UniProt P28564). Put plainly: In vitro binding affinity towards 5-hydroxytryptamine 1B receptor in rat striatal membrane with [125I]- iodocyanopindolol. The class given is cell membranes, Striatum.
5-hydroxytryptamine receptor 1B, sequence (P28564 whole entry): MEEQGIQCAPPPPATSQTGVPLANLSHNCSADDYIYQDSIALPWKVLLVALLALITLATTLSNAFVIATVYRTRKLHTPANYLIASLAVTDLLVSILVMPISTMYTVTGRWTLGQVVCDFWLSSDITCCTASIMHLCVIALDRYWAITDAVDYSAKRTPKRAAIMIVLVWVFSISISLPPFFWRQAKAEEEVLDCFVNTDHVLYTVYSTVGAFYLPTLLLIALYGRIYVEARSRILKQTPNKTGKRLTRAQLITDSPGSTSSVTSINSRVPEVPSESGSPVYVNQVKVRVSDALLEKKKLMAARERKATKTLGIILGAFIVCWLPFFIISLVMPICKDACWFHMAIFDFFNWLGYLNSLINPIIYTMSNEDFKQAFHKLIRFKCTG
Experiment [5] concerns the target Serotonin 3 (5-HT3) receptor. In words: Binding affinity against the 5-hydroxytryptamine 3 receptor. The class given is protein-complex assay.
In experiment [6] the target is T1, Adrenergic receptor alpha-2 (Homo sapiens, UniProt P08913+P18825+P18089).
T1 sequence (P08913 whole entry): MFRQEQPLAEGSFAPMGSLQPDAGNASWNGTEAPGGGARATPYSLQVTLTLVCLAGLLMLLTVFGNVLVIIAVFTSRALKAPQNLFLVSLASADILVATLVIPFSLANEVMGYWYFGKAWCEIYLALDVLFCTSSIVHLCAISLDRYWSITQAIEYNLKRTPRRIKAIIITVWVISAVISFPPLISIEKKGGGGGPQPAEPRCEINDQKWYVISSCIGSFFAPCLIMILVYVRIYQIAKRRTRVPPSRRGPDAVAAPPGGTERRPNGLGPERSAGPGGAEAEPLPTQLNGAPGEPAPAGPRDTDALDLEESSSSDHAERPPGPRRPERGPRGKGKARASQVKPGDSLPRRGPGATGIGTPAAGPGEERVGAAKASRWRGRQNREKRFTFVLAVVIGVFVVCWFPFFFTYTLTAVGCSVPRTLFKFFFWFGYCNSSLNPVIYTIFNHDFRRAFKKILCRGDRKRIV
T1 sequence (P18825 whole entry): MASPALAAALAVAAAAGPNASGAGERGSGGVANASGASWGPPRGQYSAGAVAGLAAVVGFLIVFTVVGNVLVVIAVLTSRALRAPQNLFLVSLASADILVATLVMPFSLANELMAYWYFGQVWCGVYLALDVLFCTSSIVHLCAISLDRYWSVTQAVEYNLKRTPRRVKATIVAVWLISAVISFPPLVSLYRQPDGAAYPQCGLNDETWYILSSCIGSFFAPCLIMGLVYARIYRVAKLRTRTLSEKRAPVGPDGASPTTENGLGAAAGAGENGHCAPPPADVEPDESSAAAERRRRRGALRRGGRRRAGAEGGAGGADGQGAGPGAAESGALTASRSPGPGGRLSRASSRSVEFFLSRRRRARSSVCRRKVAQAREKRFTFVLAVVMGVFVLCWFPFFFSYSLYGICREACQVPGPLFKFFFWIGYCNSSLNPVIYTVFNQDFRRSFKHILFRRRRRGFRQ
T1 sequence (P18089 whole entry): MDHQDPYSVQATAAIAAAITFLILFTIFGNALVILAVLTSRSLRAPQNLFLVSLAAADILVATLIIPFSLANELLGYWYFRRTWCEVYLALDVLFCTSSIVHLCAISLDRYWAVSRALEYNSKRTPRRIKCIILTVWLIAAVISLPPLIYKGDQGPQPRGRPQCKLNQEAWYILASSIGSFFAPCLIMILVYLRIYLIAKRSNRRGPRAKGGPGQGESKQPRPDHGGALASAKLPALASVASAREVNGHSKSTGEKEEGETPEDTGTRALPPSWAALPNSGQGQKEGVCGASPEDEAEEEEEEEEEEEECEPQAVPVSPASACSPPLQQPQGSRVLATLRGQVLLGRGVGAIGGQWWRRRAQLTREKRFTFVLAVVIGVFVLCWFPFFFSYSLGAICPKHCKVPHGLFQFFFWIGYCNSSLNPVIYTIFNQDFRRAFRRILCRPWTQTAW
Put plainly: Binding affinity against alpha-2 adrenoceptor. In kind it is protein assay.

For a further experiment, the target named is D(2) dopamine receptor (Homo sapiens, UniProt P14416). In words: Binding affinity against dopamine D2 receptor.
D(2) dopamine receptor, sequence (P14416 whole entry): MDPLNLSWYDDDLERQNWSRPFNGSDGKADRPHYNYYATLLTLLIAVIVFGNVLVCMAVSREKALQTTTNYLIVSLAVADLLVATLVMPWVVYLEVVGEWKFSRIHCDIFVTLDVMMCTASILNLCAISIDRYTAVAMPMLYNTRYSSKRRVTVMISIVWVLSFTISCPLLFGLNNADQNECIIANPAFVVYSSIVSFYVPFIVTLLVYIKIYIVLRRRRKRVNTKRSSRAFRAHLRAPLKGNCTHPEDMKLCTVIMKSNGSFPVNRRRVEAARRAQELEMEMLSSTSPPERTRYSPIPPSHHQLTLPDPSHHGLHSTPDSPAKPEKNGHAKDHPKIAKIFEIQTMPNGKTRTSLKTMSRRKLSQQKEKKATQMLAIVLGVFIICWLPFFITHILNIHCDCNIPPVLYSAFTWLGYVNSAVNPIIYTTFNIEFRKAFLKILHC
In a further experiment the target is D(1A) dopamine receptor (Homo sapiens, UniProt P21728). In words: Binding affinity against dopamine receptor D1.
D(1A) dopamine receptor, sequence (P21728 whole entry): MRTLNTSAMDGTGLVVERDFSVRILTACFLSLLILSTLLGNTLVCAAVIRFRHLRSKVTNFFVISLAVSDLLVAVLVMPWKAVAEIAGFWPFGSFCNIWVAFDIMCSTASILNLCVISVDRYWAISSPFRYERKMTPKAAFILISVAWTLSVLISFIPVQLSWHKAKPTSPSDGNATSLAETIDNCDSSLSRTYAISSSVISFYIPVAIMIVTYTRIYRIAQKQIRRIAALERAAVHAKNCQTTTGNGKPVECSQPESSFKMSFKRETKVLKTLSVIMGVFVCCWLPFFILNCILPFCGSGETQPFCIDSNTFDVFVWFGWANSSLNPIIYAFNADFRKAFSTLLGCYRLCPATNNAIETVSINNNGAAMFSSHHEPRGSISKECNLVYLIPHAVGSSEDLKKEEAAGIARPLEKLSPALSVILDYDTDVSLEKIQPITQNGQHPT
Experiment [7] addresses T2, Muscarinic acetylcholine receptor M2 (Homo sapiens, UniProt P08172).
T2 sequence (P08172 whole entry): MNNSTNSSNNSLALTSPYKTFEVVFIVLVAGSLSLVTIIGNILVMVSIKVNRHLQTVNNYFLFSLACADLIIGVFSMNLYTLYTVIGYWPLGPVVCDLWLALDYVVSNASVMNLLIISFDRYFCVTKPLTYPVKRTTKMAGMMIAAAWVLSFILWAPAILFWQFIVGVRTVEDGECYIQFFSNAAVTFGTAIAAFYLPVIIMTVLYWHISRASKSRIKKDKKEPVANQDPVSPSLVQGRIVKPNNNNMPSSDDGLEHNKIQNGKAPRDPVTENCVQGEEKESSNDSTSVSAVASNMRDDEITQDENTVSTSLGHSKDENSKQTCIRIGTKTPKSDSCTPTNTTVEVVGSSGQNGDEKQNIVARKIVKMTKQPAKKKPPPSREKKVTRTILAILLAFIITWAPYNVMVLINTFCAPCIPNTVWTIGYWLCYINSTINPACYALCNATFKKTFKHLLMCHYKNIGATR
Put plainly: Binding affinity against muscarinic M2 receptor.

The species named for another experiment is Oryctolagus cuniculus. Put plainly: Tested in vitro for its ability to block 5-HT2A induced contraction of rabbit isolated aorta. The class given is functional.
A further experiment deals with T3, D(4) dopamine receptor (Homo sapiens, UniProt P21917).
T3 sequence (P21917 whole entry): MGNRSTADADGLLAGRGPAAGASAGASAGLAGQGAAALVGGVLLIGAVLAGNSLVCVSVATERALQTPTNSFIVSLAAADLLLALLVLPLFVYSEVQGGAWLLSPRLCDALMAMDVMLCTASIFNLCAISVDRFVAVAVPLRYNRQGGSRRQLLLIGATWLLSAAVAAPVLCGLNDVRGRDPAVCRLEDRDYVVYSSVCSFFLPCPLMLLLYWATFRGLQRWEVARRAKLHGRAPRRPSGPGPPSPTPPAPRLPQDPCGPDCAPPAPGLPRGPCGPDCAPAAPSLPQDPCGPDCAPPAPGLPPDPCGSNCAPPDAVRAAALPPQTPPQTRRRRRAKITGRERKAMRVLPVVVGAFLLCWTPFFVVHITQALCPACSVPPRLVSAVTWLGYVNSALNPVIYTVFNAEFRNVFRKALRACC
Put plainly: Binding affinity against dopamine D4 receptor.

Results on 1 compound are retold here after ChEMBL document CHEMBL1127581, “Evolution of a novel series of [(N,N-dimethylamino)propyl]- and piperazinylbenzanilides as the first selective 5-HT1D antagonists” (J Med Chem, 1994).

What is called Ki is the equilibrium dissociation constant of an inhibitor or competing ligand from its target. As usually defined, the ED50 is the dose at which the effect has come halfway, by size or by number of responders. A word on the pKB: it is the KB on a negative log10 scale, so that one unit is a factor of ten. Low readings indicate a large KB, high ones a small KB.

A value given as a limit tells only on which side of the number the result lay.

5-hydroxytryptamine receptor 4, sequence (Q13639 whole entry): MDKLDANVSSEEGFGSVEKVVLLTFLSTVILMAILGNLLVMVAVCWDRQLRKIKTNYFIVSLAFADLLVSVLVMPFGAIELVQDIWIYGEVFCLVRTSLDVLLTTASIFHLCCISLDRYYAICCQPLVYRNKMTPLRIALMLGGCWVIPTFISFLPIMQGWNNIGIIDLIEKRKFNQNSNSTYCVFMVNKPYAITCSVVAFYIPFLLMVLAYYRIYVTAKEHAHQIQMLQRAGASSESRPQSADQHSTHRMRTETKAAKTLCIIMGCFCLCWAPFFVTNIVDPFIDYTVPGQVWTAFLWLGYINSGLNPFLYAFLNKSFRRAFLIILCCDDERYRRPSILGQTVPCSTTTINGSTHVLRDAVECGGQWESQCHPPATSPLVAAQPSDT
5-hydroxytryptamine receptor 1D, sequence (Q60484 whole entry): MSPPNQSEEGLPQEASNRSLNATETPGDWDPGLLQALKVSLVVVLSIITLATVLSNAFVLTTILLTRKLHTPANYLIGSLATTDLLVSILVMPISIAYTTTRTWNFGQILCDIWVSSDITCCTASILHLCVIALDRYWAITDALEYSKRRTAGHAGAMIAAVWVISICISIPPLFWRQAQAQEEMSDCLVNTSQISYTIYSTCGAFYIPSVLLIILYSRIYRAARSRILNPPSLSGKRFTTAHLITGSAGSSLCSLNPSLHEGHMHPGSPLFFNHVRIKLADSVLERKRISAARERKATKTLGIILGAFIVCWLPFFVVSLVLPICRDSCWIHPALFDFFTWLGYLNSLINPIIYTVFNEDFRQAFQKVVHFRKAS
5-hydroxytryptamine receptor 1D (Cavia porcellus), sequence (Q60484 whole entry): as above

With `COc1ccc(NC(=O)c2ccc(-c3ccc(-c4noc(C)n4)cc3C)cc2)cc1N1CCN(C)CC1` [GR-127935], the Ki was over 10000 nM in experiment [1]; 3.16 nM in experiment [2]; 3.16 nM in experiment [4]; over 10000 nM on D(2) dopamine receptor; over 10000 nM on D(1A) dopamine receptor; over 1000 nM in experiment [7]. For the same compound, the Ki at D(4) dopamine receptor was over 10000 nM. Moreover, in experiment [3], the 50% effect level (ED50) was put at a dose of 0.3 mg/kg. Also, the “Log Ki” value in experiment [5] is -5.2; in experiment [6] it was over -6. The compound further gave a pKB in the experiment filed under Oryctolagus cuniculus of 6.4.
